Results from ChEMBL document CHEMBL1201862, “PubChem BioAssay data set” (2004).
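Briefly, cells in 96-well plates were exposed to five compound concentrations for 48 h, and endpoints were estimated by linear interpolation. GI50 is the concentration that inhibits growth by half.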 Calls of active or inactive are those of the source. Rule as the data show it: active = GI50 up to about 1.1 µM and inactive = higher.

Legend:
Test in all cases: inhibition of tumour cell growth, NCI panel, 48 h
ACHN = system: ACHN
BT-549 = system: BT-549
CAKI-1 = system: CAKI-1
CCRF-CEM = system: CCRF-CEM
DU-145 = system: DU-145
HL-60 = system: HL-60
HOP-62 = system: HOP-62
HOP-92 = system: HOP-92
K562 = system: K562
KM12 = system: KM12
LOX IMVI = system: LOX IMVI
MDA-MB-435 = system: MDA-MB-435
MOLT-4 = system: MOLT-4
Malme-3M = system: Malme-3M
NCI-H522 = system: NCI-H522
OVCAR-4 = system: OVCAR-4
SF-268 = system: SF-268
SK-OV-3 = system: SK-OV-3
SW-620 = system: SW-620
UACC-62 = system: UACC-62

| Structure (SMILES) | GI50 (ACHN) | GI50 (BT-549) | GI50 (CAKI-1) | GI50 (CCRF-CEM) | GI50 (DU-145) | GI50 (HL-60) | GI50 (HOP-62) | GI50 (HOP-92) | GI50 (K562) | GI50 (KM12) | GI50 (LOX IMVI) | GI50 (MDA-MB-435) | GI50 (MOLT-4) | GI50 (Malme-3M) | GI50 (NCI-H522) | GI50 (OVCAR-4) | GI50 (SF-268) | GI50 (SK-OV-3) | GI50 (SW-620) | GI50 (UACC-62) |
| --- | --- | --- | --- | --- | --- | --- | --- | --- | --- | --- | --- | --- | --- | --- | --- | --- | --- | --- | --- | --- |
| Clc1ccc2c(SCC3CO3)c3ccccc3nc2c1 (stereo not given) | 2.06 µM (inactive) | 6.03 µM (inactive) | 1.49 µM (inactive) | 2.43 µM (inactive) | 1.57 µM (inactive) | 1.04 µM (active) | 6.25 µM (inactive) | 2.12 µM (inactive) | 1.87 µM (inactive) | 1.7 µM (inactive) | 2.25 µM (inactive) | 3.15 µM (inactive) | 1.85 µM (inactive) | 2.04 µM (inactive) | 2.08 µM (inactive) | 3.87 µM (inactive) | 3.18 µM (inactive) | 21.1 µM (inactive) | 1.92 µM (inactive) | 3.61 µM (inactive) |
| Cc1ccc(/C=N/Nc2cc(C)c3cccc(C)c3n2)s1 | 16.5 µM (inactive) | 5.45 µM (inactive) | 15.8 µM (inactive) | 4.43 µM (inactive) | 10.5 µM (inactive) | 3.28 µM (inactive) | 11.8 µM (inactive) | 6.4 µM (inactive) | 3.46 µM (inactive) | 7.31 µM (inactive) | 1.63 µM (inactive) | 7.14 µM (inactive) | 3.21 µM (inactive) | 15.1 µM (inactive) | 2.81 µM (inactive) | 13.9 µM (inactive) | 6.73 µM (inactive) | 16.4 µM (inactive) | 8.15 µM (inactive) | 17.9 µM (inactive) |
| Nc1ncnc2c1ccn2CC#CCO | > 100 µM (inactive) | > 100 µM (inactive) | > 100 µM (inactive) | > 100 µM (inactive) | > 100 µM (inactive) | 93.8 µM (inactive) | > 100 µM (inactive) | > 100 µM (inactive) | > 100 µM (inactive) | > 100 µM (inactive) | > 100 µM (inactive) | > 100 µM (inactive) | > 100 µM (inactive) | > 100 µM (inactive) | > 100 µM (inactive) | > 100 µM (inactive) | > 100 µM (inactive) | > 100 µM (inactive) | > 100 µM (inactive) | > 100 µM (inactive) |
| NCCCCC(N)C(=O)NCCNc1ccc(NCCNC(=O)C(N)CCCCN)c2c1C(=O)c1ccccc1C2=O (stereo not given) | 35.6 µM (inactive) | 6.78 µM (inactive) | > 84.7 µM (inactive) | 31.9 µM (inactive) | > 100 µM (inactive) | > 95.5 µM (inactive) | 9.46 µM (inactive) | 5.27 µM (inactive) | > 33.4 µM (inactive) | > 81.3 µM (inactive) | 9.35 µM (inactive) | 98.6 µM (inactive) | 4.39 µM (inactive) | > 100 µM (inactive) | 3.56 µM (inactive) | > 100 µM (inactive) | > 100 µM (inactive) | 34.4 µM (inactive) | 71.8 µM (inactive) | > 100 µM (inactive) |
| Cc1c2cccc-2c(OCCO)cc2c3ccccc3n(C)c12 | 5.12 µM (inactive) | 3.45 µM (inactive) | 10.2 µM (inactive) | 1.92 µM (inactive) | 6.79 µM (inactive) | 2.16 µM (inactive) | 2.56 µM (inactive) | 1.77 µM (inactive) | 3.72 µM (inactive) | 3.21 µM (inactive) | 2.77 µM (inactive) | 4.35 µM (inactive) | 3.86 µM (inactive) | 3.85 µM (inactive) | 2.18 µM (inactive) | 3.09 µM (inactive) | 4.02 µM (inactive) | 1.58 µM (inactive) | 4.08 µM (inactive) | 4.7 µM (inactive) |
| O=C1/C(=C\c2ccc(Cl)cc2Cl)Sc2scc(-c3cccc([N+](=O)[O-])c3)[n+]21 | 3.33 µM (inactive) | 4.45 µM (inactive) | 3.03 µM (inactive) | 0.291 µM (active) | 14 µM (inactive) | 0.49 µM (active) | 16.5 µM (inactive) | 5.89 µM (inactive) | 3.1 µM (inactive) | 11.6 µM (inactive) | 1.55 µM (inactive) | 10 µM (inactive) | 1.45 µM (inactive) | 8.11 µM (inactive) | 1.43 µM (inactive) | 12 µM (inactive) | 9.1 µM (inactive) | 41 µM (inactive) | 3.62 µM (inactive) | 8.65 µM (inactive) |
| CN(CCCN(C)Cc1ccc(Cl)c(Cl)c1)CCN1CCCC1 | 27.8 µM (inactive) | 30.8 µM (inactive) | 29.2 µM (inactive) | 7.11 µM (inactive) | 62.1 µM (inactive) | 23.4 µM (inactive) | 26.5 µM (inactive) | 4.16 µM (inactive) | 4.67 µM (inactive) | 30.7 µM (inactive) | 14.4 µM (inactive) | 3.33 µM (inactive) | 6.27 µM (inactive) | 15.8 µM (inactive) | 16 µM (inactive) | 66.7 µM (inactive) | 27.5 µM (inactive) | 75.3 µM (inactive) | 19.7 µM (inactive) | 1.85 µM (inactive) |
| CC1C/C(=N\N(C)C)C(C#N)(C#N)C1(C#N)C#N (stereo not given) | 8.43 µM (inactive) | 4.57 µM (inactive) | 1.75 µM (inactive) | 0.91 µM (active) | 18.2 µM (inactive) | 0.857 µM (active) | 18 µM (inactive) | 4.63 µM (inactive) | 2.35 µM (inactive) | 27 µM (inactive) | 7.14 µM (inactive) | 16.7 µM (inactive) | 2.63 µM (inactive) | 7.6 µM (inactive) | 1.93 µM (inactive) | 12.6 µM (inactive) | 15.6 µM (inactive) | > 46.9 µM (inactive) | 5.05 µM (inactive) | 13.8 µM (inactive) |
| CC1(CCCO)CCCCCCCCCC(C)(CCCO)C1=O (stereo not given) | > 100 µM (inactive) | > 100 µM (inactive) | > 100 µM (inactive) | 55 µM (inactive) | > 100 µM (inactive) | 40 µM (inactive) | > 100 µM (inactive) | > 100 µM (inactive) | > 100 µM (inactive) | > 100 µM (inactive) | > 100 µM (inactive) | > 100 µM (inactive) | > 100 µM (inactive) | > 100 µM (inactive) | > 100 µM (inactive) | > 100 µM (inactive) | > 100 µM (inactive) | > 100 µM (inactive) | > 100 µM (inactive) | > 100 µM (inactive) |
| CC(=O)OCc1ccc2c(c1)C(O)NC(=O)O2 (stereo not given) | > 100 µM (inactive) | > 100 µM (inactive) | > 100 µM (inactive) | 12.4 µM (inactive) | > 100 µM (inactive) | > 100 µM (inactive) | > 100 µM (inactive) | > 100 µM (inactive) | 31 µM (inactive) | 88.5 µM (inactive) | 47.2 µM (inactive) | > 100 µM (inactive) | 12.8 µM (inactive) | 42.4 µM (inactive) | 68.7 µM (inactive) | 93.1 µM (inactive) | > 100 µM (inactive) | > 100 µM (inactive) | 72.8 µM (inactive) | > 100 µM (inactive) |
| CC(=O)Oc1ccc(OC(Oc2ccccc2)c2ccccc2)cc1 (stereo not given) | 25.2 µM (inactive) | 27 µM (inactive) | 20 µM (inactive) | 27.5 µM (inactive) | 36.9 µM (inactive) | 12.6 µM (inactive) | 36.2 µM (inactive) | 19 µM (inactive) | 51.4 µM (inactive) | 23.2 µM (inactive) | 21.6 µM (inactive) | 32.4 µM (inactive) | 34 µM (inactive) | 23.6 µM (inactive) | 42.6 µM (inactive) | 33.7 µM (inactive) | 33 µM (inactive) | 32.6 µM (inactive) | 38.6 µM (inactive) | 20.7 µM (inactive) |
| O=C(Oc1cccc2cccnc12)c1cc2cc(CCl)ccc2oc1=O | 19 µM (inactive) | 31.5 µM (inactive) | 29.9 µM (inactive) | 0.277 µM (active) | 20.7 µM (inactive) | 3.22 µM (inactive) | 44.3 µM (inactive) | 34.2 µM (inactive) | 3.1 µM (inactive) | 24 µM (inactive) | 25.3 µM (inactive) | 10.8 µM (inactive) | 2.8 µM (inactive) | 15.7 µM (inactive) | 2.18 µM (inactive) | 25.6 µM (inactive) | 18.5 µM (inactive) | > 100 µM (inactive) | 4.56 µM (inactive) | 8.57 µM (inactive) |
| CC(=O)O[C@H]1C(=O)[C@@]2(C)[C@H]([C@H](OC(=O)c3ccccc3)[C@]3(O)C[C@H](OC(=O)[C@H](O)[C@@H](NC(=O)c4ccccc4)c4ccccc4C)C(C)=C1C3(C)C)[C@]1(OC(C)=O)CO[C@@H]1C[C@@H]2O | 2.44 µM (inactive) | 0.687 µM (active) | 5.35 µM (inactive) | 0.376 µM (active) | 1.85 µM (inactive) | 0.0659 µM (active) | 0.326 µM (active) | 2.13 µM (inactive) | 0.211 µM (active) | 0.163 µM (active) | 0.631 µM (active) | 0.07 µM (active) | 0.411 µM (active) | 1.66 µM (inactive) | 0.556 µM (active) | 3.78 µM (inactive) | 1.2 µM (inactive) | 1.02 µM (active) | 0.351 µM (active) | 1.22 µM (inactive) |
| Cc1c2cc[n+](C)cc2c(C)c2c1oc1ccccc12 | 39.6 µM (inactive) | 0.608 µM (active) | 28.4 µM (inactive) | 3.18 µM (inactive) | 15.9 µM (inactive) | 12 µM (inactive) | 2.06 µM (inactive) | 6.5 µM (inactive) | 6.38 µM (inactive) | 1.62 µM (inactive) | 11.4 µM (inactive) | 7.83 µM (inactive) | 2.74 µM (inactive) | 1.6 µM (inactive) | 1.95 µM (inactive) | 7.14 µM (inactive) | 0.406 µM (active) | 14.7 µM (inactive) | 3 µM (inactive) | 5.62 µM (inactive) |
